# Results taken from paper PMC11669939, “Impairing protein–protein interactions in an essential tRNA modification complex: An innovative antimicrobial strategy against Pseudomonas aeruginosa” (Journal of Peptide Science, 2024).
# Key:
# [1] = cited from earlier work
# Excerpt: P. aeruginosa (PAE) is a Gram‐negative bacterium that has been ranked by WHO as one out of three pathogens with the highest global priority for the development of novel effective antibacterials.[17] PAE is a major cause of both acute and chronic lung infections, which develop in up to 60%–70% of cystic fibrosis (CF) patients, often leading to a more rapid decline of lung function that turns into greater morbidity and mortality.[18], [19], [20] The misuse of classical antibiotics, whose mechanism of action is usually based on the interaction with a well‐defined ligand binding site, led to an ev ... || These observations supported our hypothesis that PMP1 should be able to bind to YeaZ and consequently reduce its ability to form protein complexes, thus impairing its function. […] Indeed, the PMP2 peptide derives from the PMP1 sequence RIAIGVVQGLAFAL (Arg73‐Leu86) and thus contains the four hot ...
# P. aeruginosa PAO1 = assay: Bacterial growth inhibition assay, P. aeruginosa PAO1; format: cell-based, Pseudomonas aeruginosa; details: 3, 10, 30 μM; Mueller Hinton Broth, 37°C, OD595 every 15 min; mean of three independent experiments
# Method: (§1) Growth inhibition experiments were performed with P. aeruginosa PAO1 strain[37] and Escherichia coli K‐12 MG1655.[38] Cells were grown overnight in 10 ml of LB medium at 37°C with shaking. Overnight cultures were washed twice with phosphate‐buffered saline (PBS) and inoculated to an optical density at 595 nm (OD595) of 0.05 in 10 ml of Mueller Hinton Broth (Sigma‐Aldrich). Aliquots (200 μl) of inoculated medium were distributed in triplicate (technical replicates) in a 96‐Well Cellstar® suspension culture plate (Greiner Bio‐One) and incubated in a Sunrise microplate reader (Tecan Group) at 37°C with constant orbital shaking and real‐time OD595 measurements every 15 min. Three final peptide concentrations were tested: 3, 10, and 30 μM, respectively. Controls were made by adding sterilized water, in the same amount of the added peptide volumes. Three independent replicates were performed. Data were reported by plotting, at each time point, the mean OD595 values of the three replicates with error bars indicating Standard Error of Mean (SEM).
# YeaZ [2] = assay: Microscale thermophoresis (MST) assay; format: binding, Pseudomonas aeruginosa; details: 50 nM RED‐NHS labeled YeaZ, Hepes 50 mM pH 7.4, NaCl 500 mM, 10% glycerol, 0.05% Tween20, 24°C, 650 nm, triplicates; saturation plateau not reached, precise value not calculable
# Method: Microscale thermophoresis (MST) experiments were performed using a Monolith X apparatus (NanoTemper Technologies GmbH, Munich, Germany) and analyzed with the MO. Affinity Analysis software (NanoTemper Technologies GmbH). Briefly, YeaZ was labeled with the red fluorescent dye RED‐NHS 2° generation according to manufacturer instructions. MST measurements were performed in triplicates at 24°C on in Hepes 50 mM pH 7.4, NaCl 500 mM, 10% glycerol, and 0.05% Tween20, using premium‐treated glass capillaries and at a fixed concentration of 50 nM YeaZ. Results were merged and analyzed.
# (§2) PMP3 was then dissolved to 1mM in MilliQ water and evaluated in vitro in ITF assays. […] To further investigate the binding with PMP3, we performed a concentration‐response curve increasing the amounts of peptide. […] We thus performed an MST assay exploiting the perturbation of thermal diffusion at 650 nm plotted against the peptide concentration. The MO.
# [3] = tested on: Escherichia coli K‐12 MG1655; assay: Bacterial growth inhibition assay, E. coli MG1655; format: cell-based; details: 3, 10, 30 μM; Mueller Hinton Broth, 37°C, OD595 every 15 min; mean of three independent experiments
# Method: as §1
# [4] = Circular dichroism analysis; format: physicochemical; details: 20 μM, 20°C
# Method: CD spectra were acquired on a JASCO J‐715 spectropolarimeter in a 1‐mm quartz cuvette, under N2, between 260 and 185 nm, at 20°C with 0.5 nm intervals, and 3 measurements were accumulated (settings: 100 mdeg sensitivity, continuous scan mode, 50 nm/min scan speed, 2 s response, bandwidth 1.0 nm). The resulting signal was converted from ellipticity (mdeg) to molar ellipticity [Q] in deg · cm^2 · dmol^−1. Peptides were solubilized in 100% MilliQ water or 1:1 water/TFE at 20 μM concentration. The helical propensity [R] was calculated using the R‐value, i.e. the ratio between molar ellipticity values at 222 and 207 nm, where R = 1 is defined as a reference for an ideal α‐helix.
# YeaZ [5] = assay: Intrinsic tryptophan fluorescence (ITF) binding assay; design: species or system Pseudomonas aeruginosa
# Method: (§3) Briefly, the YeaZ protein was produced in E. coli M15[pREP4] strain using a pQE30‐PaYeaZ plasmid. Cells were grown in LB medium at 37°C till the OD600 reached 0.6, then the protein expression was induced by isopropyl‐β‐D‐thiogalactoside (IPTG) at a final concentration of 0.1 mM for 5 h at 30°C. After cell collection, the pellet was resuspended in a lysis buffer containing 50 mM phosphate buffer, 150 mM NaCl, and 10 mM imidazole, pH 7.4. Cells were subsequently disrupted by a French press disruptor (20 bar pressure), and one tablet of protease inhibitor (Roche), 10 mg/ml DNase I, and 5 mg/ml Ribonuclease A were added to the solution. After centrifugation at 18,000 rpm for 45 min, the supernatant was collected, filtered, and loaded onto a Ni‐NTA Superflow (GE Healthcare Life Science). YeaZ was further purified using a Superdex 75 gel filtration column (GE Healthcare Life Science) in buffer 50 mM Hepes pH 7.4, 150 mM NaCl at a concentration of 0.5 mg/ml, in which freshly purified protein exists as a monomer in solution, and stored at −80°C.
# Spectrofluorometric assays were performed on a Varian Cary Eclipse fluorescence spectrophotometer (Agilent Technologies) at 20°C. YeaZ was used at a final concentration of 0.065 mg/ml in buffer Hepes 50 mM pH 7.4, NaCl 500 mM, 10% glycerol (with 2% v/v DMSO as control), while the peptides were used at a final concentration of 200 μM. We used an excitation wavelength of 280 nm and registered the fluorescence emission spectra between 300 and 400 nm. Measures were performed in triplicates.
# To evaluate the binding of PMP2 in vitro, the recombinant His‐tagged YeaZ protein from PAE PAO1 was produced in E. coli and purified with final purity and yield values adequate for the binding studies. Compound PMP2 was dissolved to 10mM with 100% DMSO and tested in in vitro assays at a final concentration of 200 μM (corresponding to a DMSO concentration of 2%). The interaction with the protein was first evaluated by exploiting the intrinsic fluorescence of the tryptophan residues (ITF) contained in the protein's amino acid sequence. […] Analytical size exclusion chromatography (SEC) was then run to evaluate the peptide's ability to disrupt or interfere with the formation of the homodimers. The YeaZ protein alone eluted at a volume corresponding mainly to its dimeric form (estimated molecular weight of 51 kDa of the main peak) and the effect of 2% v/v DMSO was irrelevant.
# as §2
# [6] = target: YeaZ protein from P. aeruginosa PAO1, recombinant His-tagged (P. aeruginosa PAO1); assay: SEC; analytical, Superdex75 Increase 10/300 GL, Hepes 50 mM pH 7.4, NaCl 500 mM, 10% glycerol; YeaZ 0.5 mg/ml (2% DMSO as control); peptide at 200 μM
# YeaZ homodimer = assay: Analytical size exclusion chromatography (SEC); format: binding, Pseudomonas aeruginosa; details: peptide 200 μM, 2% DMSO, YeaZ 0.5 mg/ml
# Method: as §3, with “YeaZ was further purified using a Superdex 75 gel filtration column (GE Healthcare Life Science) in buffer 50 mM Hepes pH 7.4, 150 mM NaCl at a concentration of 0.5 mg/ml, in which freshly purified protein exists as a monomer in solution, and stored at −80°C.” left out
# To evaluate the binding of PMP2 in vitro, the recombinant His‐tagged YeaZ protein from PAE PAO1 was produced in E. coli and purified with final purity and yield values adequate for the binding studies. […] The interaction with the protein was first evaluated by exploiting the intrinsic fluorescence of the tryptophan residues (ITF) contained in the protein's amino acid sequence. […]
# [7] = previous work; cited from earlier work
# Excerpt: Since the PPIs and hot spots involved in the PAE YeaZ homodimer are conserved in the YeaZ/YgjD heterodimer,[21], [25], [26] we hypothesized that PMP1 might also represent a good starting point to target the YeaZ/YgjD interface. In this work, we report our studies focused on the PPIs involved in the formation of the TC‐complex and their possible inhibition by PMP1 derivatives. The final aim was the interference of t^6A37 biosynthesis and, consequently, the achievement of bacterial growth impairment.
# [8] = Solubility, hydrophobicity and aggregation of the peptides; format: physicochemical
substance,measurement,setting,value
AIAIGVVQGLAFAL [PMP1],hydrophobicity,[1],too hydrophobic
AIAIGVVQGLAFAL‐GG‐[R‐Ahx‐R]4‐Ahx‐β‐Ala [PMP3],growth inhibition of PAE PAO1,P. aeruginosa PAO1,significant concentration‐dependent decrease in the growth rates
same,Kd (MST),YeaZ [2],low micromolar
same,growth inhibition of E. coli MG1655,[3],much weaker than those observed for PAO1
same,secondary structure by CD,[4]; 1:1 water/TFE,a clear α‐helix conformation was observed
same,secondary structure by CD,[4]; 100% MilliQ water,did not show any particular secondary structure
same,helical propensity R,"[4]; ratio of molar ellipticity at 222 and 207 nm (R = 1 ideal α‐helix), 1:1 water/TFE",0.78
same,intrinsic fluorescence of the peptide,"YeaZ [5]; above a concentration threshold, at 310–340 nm, prevented concentration‐response evaluation",higher than the intrinsic fluorescence of the YeaZ protein
same,fluorescence intensity of YeaZ in presence of peptide (ITF),"YeaZ [5]; peptide 200 μM, from 1mM in MilliQ water, YeaZ 0.065 mg/ml, Hepes 50 mM pH 7.4, NaCl 500 mM, 10% glycerol, 20°C, excitation 280 nm, triplicates",reduction of the fluorescence intensity
same,"shift of emission towards shorter wavelengths (ITF), wavelength","YeaZ [5]; peptide 200 μM, from 1mM in MilliQ water, YeaZ 0.065 mg/ml, pH 7.4, 20°C, slight shift",around 330 nm
"YeaZ protein from P. aeruginosa PAO1, recombinant His-tagged (from UniProt A0A0H2ZEW0 1-226) (natural protein)",stoichiometry N,[6],2
AIAIGVVQGLAFAL‐GG‐KKKG [PMP2],self‐assembly,[1]; by fine‐tuning of the environmental conditions,capable of self‐assembling in helical nanofibers and 2D sheets as well as forming hydrogels
same,growth inhibition of PAE PAO1,P. aeruginosa PAO1,no effect of growth inhibition could be observed
same,estimated molecular weight of the YeaZ dimeric peak (SEC),"YeaZ homodimer; Hepes 50 mM pH 7.4, NaCl 500 mM, 10% glycerol, Superdex75 Increase 10/300, YeaZ alone 51 kDa",49 kDa
same,effect on the YeaZ dimeric peak (SEC),YeaZ homodimer; pH 7.4,slight shift of the dimeric peak towards a smaller molecular weight
same,growth inhibition of E. coli MG1655,[3],no effect of growth inhibition could be observed
same,helicity outside the protein environment,[7],maintain helicity outside the protein environment
same,solubility,"[8]; any tested solvent (H2O, 100% DMSO, 10 mM NaOH)",poor solubility
same,aggregation,"[8]; in solution at higher concentrations, prevented evaluation of a dose–response constant",formation of aggregates in solution at higher concentrations
same,fluorescence emission of YeaZ in presence of peptide (ITF),"YeaZ [5]; peptide 200 μM, 2% DMSO, YeaZ 0.065 mg/ml, Hepes 50 mM pH 7.4, NaCl 500 mM, 10% glycerol, 20°C, excitation 280 nm, emission 300-400 nm, triplicates",decreased fluorescence emission spectrum compared to the protein alone
